Legend:
hESC-ventricular CMs = assay: Action potential recording (amphotericin-B-perforated patch-clamp) in hESC-ventricular CMs; type: cell-based, human; details: 1 Hz; for APAmax / APAplat / APD20 / APD90 / dV/dtmax / APD50: hESC-VM, n=5, mean±SEM
Experimental: (§1) Spin EBs resulting from control and RA-treated differentiations were dissociated at day 17 to single cells using TrypLE™ Select (Life Technologies) and plated on gelatin-coated coverslips. Electrophysiological measurements were performed 10–14 days after dissociation from intrinsically quiescent single GFP^+ CMs that were able to contract upon field stimulation.
(§2) APs and membrane currents from hESC-CMs were recorded with the amphotericin-B-perforated patch-clamp technique at 36 ± 0.2°C using an Axopatch 200B amplifier (Molecular Devices, Sunnyvale, CA, USA). Cells were superfused with Tyrode's solution containing (in mmol/l) NaCl 140, KCl 5.4, CaCl2 1.8, MgCl2 1.0, glucose 5.5, and HEPES 5.0; pH was adjusted to 7.4 with NaOH. Pipettes (borosilicate glass; resistance 2–3 MΩ) were heat polished and filled with solution containing (in mmol/l) K-gluconate 125, KCl 20, NaCl 5, amphotericin-B 0.22 and HEPES 10; pH was adjusted to 7.2 with KOH. AP measurements were low-pass-filtered (cutoff frequency 10 kHz) and digitized at 40 kHz; membrane currents were measured at 1 and 4 kHz, respectively. Capacitance and series resistance were compensated by ≥ 80%, and APs were corrected for the calculated liquid junction potential (Barry & Lynch, [1991]). Voltage control, data acquisition and analysis were accomplished using custom software. Cell membrane capacitance (Cm) was estimated by dividing the time constant of the decay of the capacitive transient in response to 5 mV hyperpolarizing voltage clamp steps from −40 mV by the series resistance.
(§3) APs were elicited at 0.5 to 4 Hz by 3 ms, ∼1.2× threshold current pulses through the patch pipette. APs were characterized, as depicted in Fig2A, by resting membrane potential (RMP), maximum upstroke velocity (dV/dtmax), maximum AP amplitude (APAmax), AP plateau amplitude (APAplat, defined as the potential difference between RMP and potential at 20 ms after the upstroke), and the duration at 20, 50 and 90% repolarization (APD20, APD50, and APD90, respectively). Parameter values obtained from 10 consecutive APs were averaged. […]
(§4) (1:2000, Sigma) was performed in TBS-0.05% Tween 20 containing 2% nonfat milk for 1 hour at room temperature. The corresponding secondary antibody conjugated to horseradish peroxidase (HRP) (1:2000; anti-mouse-HRP (#7076), Cell Signaling) was incubated for 1 h at room temperature in 2% nonfat milk. Blots were developed on X-ray films by using a chemiluminescent detection system (ECL; GE Life Science, […]
(§5) The effects of drugs were tested in paired measurements 5 minutes after the onset of bath application. 4-AP was prepared as a 50 mmol/L stock solution in Tyrode’s solution, and pH adjusted to 7.4, with the addition of HCl. CCh, a muscarinic receptor agonist, was prepared as a 10 mmol/L stock solution in Tyrode’s solution. Nifedipine was prepared as a 10 mmol/L stock solution in DMSO and stored at 4 °C. Stock solutions for the other compounds were prepared in DMSO: Vernakalant (30 mmol/L), XEN- D0101 (3 mmol/L), XEN-R0703 (2 mmol/L) and […]. All stock solutions were diluted appropriately before use.
(§6) Recombinant ion channel pharmacology
(§7) Studies were conducted at room temperature using the whole-cell patch-clamp technique. HEK293 cells expressing Kir3.1/3.4, Kir2.1, and CHO cells expressing Nav1.2, Cav1.2 or hERG were used.

hESC-atrial CMs = assay: Action potential recording (amphotericin-B-perforated patch-clamp) in hESC-atrial CMs; type: cell-based, human; details: for reversibility of AP changes: washout
Experimental: as §1, §2, §3, §4, §5, §6, §7

[1] = vernakalant 30 μmol/l, Table S6
[2] = hESC-AM, vernakalant 30 μmol/l, 1 Hz, n=5, mean±SEM, Table S6
[3] = vernakalant 30 μmol/l, 1 Hz, vs pre-drug
[4] = hESC-AM, 4-AP 50 μmol/l, 1 Hz, n=5, mean±SEM, Table S5
[5] = hESC-AM, CCh 10 μmol/l, 1 Hz, n=4, mean±SEM, Table S9
[6] = hESC-AM, CCh 10 μmol/l, 1 Hz, n=5, mean±SEM, Table S5
[7] = XEN-D0101 3 μmol/l, 1 Hz, vs pre-drug
[8] = hESC-AM, XEN-D0101 3 μmol/l, 1 Hz, n=5, mean±SEM, Table S7

SMILES: COc1ccc(CCO[C@@H]2CCCC[C@H]2N2CC[C@@H](O)C2)cc1OC [vernakalant]
- APAmax (hESC-ventricular CMs; [1]): 104±2.2 mV
- APAplat (hESC-ventricular CMs; [1]): 101.3±2.8 mV
- APD20 (hESC-ventricular CMs; [1]): 68.6 ± 06.8 ms
- APD90 (hESC-ventricular CMs; [1]): 180.0 ± 17.7 ms
- dV/dtmax (hESC-ventricular CMs; [1]): 58.3±6.1 V/s
- effect on AP parameters (hESC-ventricular CMs; vernakalant 30 μmol/l): reduced dV/dtmax but without affecting other AP parameters
- APAmax (hESC-atrial CMs; [2]): 80.3±2.2 mV
- APAplat (hESC-atrial CMs; [2]): 73.6±4.9 mV
- APD20 (hESC-atrial CMs; [2]): 29.7 ± 4.0 ms
- APD50 (hESC-atrial CMs; [2]): 65.4 ± 7.7 ms
- APD90 (hESC-atrial CMs; [2]): 177.2 ± 08.2 ms
- RMP (hESC-atrial CMs; [2]): -74.2±2.5 mV
- dV/dtmax (hESC-atrial CMs; [2]): 40.4±3.8 V/s
- increase of APAmax (hESC-atrial CMs; [3]): > 2.5 mV
- increase of APAplat (hESC-atrial CMs; [3]): > 20%
- prolongation of APD20 (hESC-atrial CMs; [3]): > 7.5 ms
- prolongation of APD50 (hESC-atrial CMs; [3]): > 15 ms
- prolongation of APD90 (hESC-atrial CMs; [3]): > 22 ms
- reversibility of AP changes (hESC-atrial CMs; vernakalant 30 μmol/l): nearly reversible upon washout

SMILES: Nc1ccncc1 [4-AP, 4-aminopyridine]
- APAmax (hESC-ventricular CMs; 4-AP 50 μmol/l, Table S5): 99.0±4.0 mV
- APAplat (hESC-ventricular CMs; 4-AP 50 μmol/l, Table S5): 99.8±5.8 mV
- APD20 (hESC-ventricular CMs; 4-AP 50 μmol/l, Table S5): 83.1 ± 15.1 ms
- dV/dtmax (hESC-ventricular CMs; 4-AP 50 μmol/l, Table S5): 49.9±11.1 V/s
- APAmax (hESC-atrial CMs; [4]): 94.6±3.0 mV
- APAplat (hESC-atrial CMs; [4]): 86.4±6.5 mV
- APD20 (hESC-atrial CMs; [4]): 41.6 ± 8.1 ms
- APD50 (hESC-atrial CMs; [4]): 72 ± 13 ms

SMILES: C[N+](C)(C)CCOC(N)=O [CCh, carbachol]
- dV/dtmax (hESC-ventricular CMs; CCh 10 μmol/l): 129.9±54 V/s
- APAmax (hESC-ventricular CMs; CCh 10 μmol/l, Table S5): 104.4±9.1 mV
- APD20 (hESC-ventricular CMs; CCh 10 μmol/l, Table S5): 112.9 ± 18.0 ms
- APAmax (hESC-ventricular CMs; CCh 10 μmol/l, Table S9): 110.5±7.8 mV
- APAplat (hESC-ventricular CMs; CCh 10 μmol/l, Table S9): 109.6±7.5 mV
- APD20 (hESC-ventricular CMs; CCh 10 μmol/l, Table S9): 122.9 ± 17.5 ms
- APD50 (hESC-ventricular CMs; CCh 10 μmol/l, Table S9): 181.2 ± 27.6 ms
- APD90 (hESC-ventricular CMs; CCh 10 μmol/l, Table S9): 230.6 ± 25.7 ms
- dV/dtmax (hESC-ventricular CMs; CCh 10 μmol/l, Table S9): 154.8±58.3 V/s
- APAmax (hESC-atrial CMs; [5]): 88.9±1.4 mV
- APAplat (hESC-atrial CMs; [5]): 72.4±3.1 mV
- APD20 (hESC-atrial CMs; [5]): 23.9 ± 4.6 ms
- APD50 (hESC-atrial CMs; [5]): 68.1 ± 7.7 ms
- APD90 (hESC-atrial CMs; [5]): 141.2 ± 12.4 ms
- dV/dtmax (hESC-atrial CMs; [5]): 40.0±5.2 V/s
- APAmax (hESC-atrial CMs; [6]): 89.1±1.1 mV
- APAplat (hESC-atrial CMs; [6]): 72.6±2.3 mV
- APD20 (hESC-atrial CMs; [6]): 25.4 ± 3.8 ms
- APD50 (hESC-atrial CMs; [6]): 67 ± 6 ms

SMILES: O=C(NCCO)C1CCCN(c2nc(NCc3ccccn3)c3c(-c4ccccc4)csc3n2)C1 (stereo not shown) [XEN-D0101]
- effect on AP parameters (hESC-ventricular CMs; XEN-D0101 3 μmol/l): did not s ignificantly alter any AP parameter
- APAmax (hESC-ventricular CMs; XEN-D0101 3 μmol/l, Table S7): 105.3±5.8 mV
- APAplat (hESC-ventricular CMs; XEN-D0101 3 μmol/l, Table S7): 103.7±6.5 mV
- APD20 (hESC-ventricular CMs; XEN-D0101 3 μmol/l, Table S7): 101.3 ± 14.0 ms
- APD50 (hESC-ventricular CMs; XEN-D0101 3 μmol/l, Table S7): 158.4 ± 18.0 ms
- APD90 (hESC-ventricular CMs; XEN-D0101 3 μmol/l, Table S7): 237.4 ± 21.9 ms
- change of APA (hESC-atrial CMs; [7]): > 10 mV
- change of dV/dtmax (hESC-atrial CMs; [7]): > 8 V/s
- elevation of APAplat (hESC-atrial CMs; [7]): > 26 mV
- prolongation of APD20 (hESC-atrial CMs; [7]): > 30 ms
- prolongation of APD50 (hESC-atrial CMs; [7]): > 35 ms
- prolongation of APD90 (hESC-atrial CMs; [7]): > 23 ms
- reversibility of AP changes (hESC-atrial CMs; XEN-D0101 3 μmol/l): reversible upon washout
- APAmax (hESC-atrial CMs; [8]): 98.9±5.8 mV
- APAplat (hESC-atrial CMs; [8]): 86.8±7.4 mV
- APD20 (hESC-atrial CMs; [8]): 55.7 ± 16.2 ms
- APD50 (hESC-atrial CMs; [8]): 91.3 ± 22.6 ms
- APD90 (hESC-atrial CMs; [8]): 156.2 ± 22.8 ms
